Measurements taken from patent US9290457B2, “Substituted dihydropyrimidinones and their use as inhibitors of neutrophil elastase activity” (Boehringer Ingelheim International GmbH, priority 2014, dated 2016).

target: neutrophil elastase (Homo sapiens (Human), UniProt P08246); assay: Human Neutrophil Elastase Assay; type: biochemical; details: substrate MeOSuc-Ala-Ala-Pro-Val-AMC
Method: Human Neutrophil Elastase Assay
All other materials were of the highest grade commercially available.
The following buffers were used: Compound buffer: 100 mM Tris, 500 mM NaCl, adjusted to pH 7.5; Assay buffer: 100 mM Tris, 500 mM NaCl, adjusted to pH 7.5, containing 0.01% BSA.
Assay conditions: Test compounds were prediluted in DMSO and subsequently in compound buffer (5% DMSO final). […] After inactivation of the enzyme, fluorescence intensities were measured at 380 nm excitation and 460 nm emission wavelengths.
Each plate contains wells with a high value control (DMSO+enzyme+substrate) and wells with a low value control (DMSO+inactivated enzyme+substrate). IC50 values were estimated using a sigmoidal concentration response curve with variable slope. Means of low values were taken as 0%, means of high values as 100%.

Chain of neutrophil elastase (P08246 30-247): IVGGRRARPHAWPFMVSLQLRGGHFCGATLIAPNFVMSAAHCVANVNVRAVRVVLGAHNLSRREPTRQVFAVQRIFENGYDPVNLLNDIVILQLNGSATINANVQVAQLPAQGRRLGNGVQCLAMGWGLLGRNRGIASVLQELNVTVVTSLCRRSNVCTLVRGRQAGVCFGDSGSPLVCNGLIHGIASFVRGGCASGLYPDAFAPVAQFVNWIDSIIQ

| SMILES | IC50 |
| --- | --- |
| CC(=O)C1=C(C)N(c2cccc(C(F)(F)F)c2)C(=O)N(C)C1c1ccc(C#N)cc1C(N)=O (stereo not shown) [Example 1, 2-[5-Acetyl-3,6-dimethyl-2-oxo-1-(3-trifluoromethyl-phenyl)-1,2,3,4-tetrahydro-pyrimidin-4-yl]-5-cyano-benzamide] | < 1 nM |
| CNC(=O)c1cc(C#N)ccc1C1C(C(C)=O)=C(C)N(c2cccc(C(F)(F)F)c2)C(=O)N1C (stereo not shown) [Example 1.1] | < 1 nM |
| CC(=O)C1=C(C)N(c2cccc(C(F)(F)F)c2)C(=O)N(C)C1c1ccc(C#N)cc1C(=O)N(C)C (stereo not shown) [Example 1.2] | < 1 nM |
| CC(=O)C1=C(C)N(c2cccc(C(F)(F)F)c2)C(=O)N(C)C1c1ccc(C#N)cc1C(=O)N1CCOCC1 (stereo not shown) [Example 1.3] | 2.25 nM |
| CCNC(=O)c1cc(C#N)ccc1C1C(C(C)=O)=C(C)N(c2cccc(C(F)(F)F)c2)C(=O)N1C (stereo not shown) [Example 1.4] | < 1 nM |
| C#CCNC(=O)c1cc(C#N)ccc1C1C(C(C)=O)=C(C)N(c2cccc(C(F)(F)F)c2)C(=O)N1C (stereo not shown) [Example 1.5] | < 1 nM |
| CC(=O)C1=C(C)N(c2cccc(C(F)(F)F)c2)C(=O)N(C)C1c1ccc(C#N)cc1C(=O)N1CCC1 (stereo not shown) [Example 1.7] | < 1 nM |
| CC(=O)C1=C(C)N(c2cccc(C(F)(F)F)c2)C(=O)N(C)C1c1ccc(C#N)cc1C(=O)NCCO (stereo not shown) [Example 1.9] | < 1 nM |
| CC(=O)C1=C(C)N(c2cccc(C(F)(F)F)c2)C(=O)N(C)C1c1ccc(C#N)cc1C(=O)N1CCCC1 (stereo not shown) [Example 1.11] | < 1 nM |
| CC(=O)C1=C(C)N(c2cccc(C(F)(F)F)c2)C(=O)N(C)C1c1ccc(C#N)cc1C(=O)N1CC(O)C1 (stereo not shown) [Example 1.12] | < 1 nM |
| CC(=O)C1=C(C)N(c2cccc(C(F)(F)F)c2)C(=O)N(C)C1c1ccc(C#N)cc1C(=O)NC1COC1 (stereo not shown) [Example 1.13] | < 1 nM |
| CC(=O)C1=C(C)N(c2cccc(C(F)(F)F)c2)C(=O)N(C)C1c1ccc(C#N)cc1C(=O)N(C)CCO (stereo not shown) [Example 1.14] | < 1 nM |
| COCCNC(=O)c1cc(C#N)ccc1C1C(C(C)=O)=C(C)N(c2cccc(C(F)(F)F)c2)C(=O)N1C (stereo not shown) [Example 1.15] | < 1 nM |
| CC(=O)C1=C(C)N(c2cccc(C(F)(F)F)c2)C(=O)N(C)C1c1ccc(C#N)cc1C(=O)NCCCO (stereo not shown) [Example 1.16] | < 1 nM |
| CC(=O)C1=C(C)N(c2cccc(C(F)(F)F)c2)C(=O)N(C)C1c1ccc(C#N)cc1C(=O)NCC(F)F (stereo not shown) [Example 1.17] | < 1 nM |
| CC(=O)C1=C(C)N(c2cccc(C(F)(F)F)c2)C(=O)N(C)C1c1ccc(C#N)cc1C(=O)NC12CC(C1)C2 (stereo not shown) [Example 1.18] | 1 nM |
| CC(=O)C1=C(C)N(c2cccc(C(F)(F)F)c2)C(=O)N(C)C1c1ccc(C#N)cc1C(=O)NC1CCOC1 (stereo not shown) [Example 1.19] | < 1 nM |
| COCCCNC(=O)c1cc(C#N)ccc1C1C(C(C)=O)=C(C)N(c2cccc(C(F)(F)F)c2)C(=O)N1C (stereo not shown) [Example 1.20] | < 1 nM |
| COCCN(C)C(=O)c1cc(C#N)ccc1C1C(C(C)=O)=C(C)N(c2cccc(C(F)(F)F)c2)C(=O)N1C (stereo not shown) [Example 1.21] | < 1 nM |
| CC(=O)C1=C(C)N(c2cccc(C(F)(F)F)c2)C(=O)N(C)C1c1ccc(C#N)cc1C(=O)NCC(F)(F)F (stereo not shown) [Example 1.23] | < 1 nM |
| CC(=O)C1=C(C)N(c2cccc(C(F)(F)F)c2)C(=O)N(C)C1c1ccc(C#N)cc1C(=O)NC1CCOCC1 (stereo not shown) [Example 1.24] | < 1 nM |

| SMILES | IC50 |
| --- | --- |
| CC(=O)C1=C(C)N(c2cccc(C(F)(F)F)c2)C(=O)N(C)C1c1ccc(C#N)cc1C(=O)NC1CCC(O)C1 (stereo not shown) [Example 1.25] | 1.1 nM |
| CC(=O)C1=C(C)N(c2cccc(C(F)(F)F)c2)C(=O)N(C)C1c1ccc(C#N)cc1C(=O)N1CCC(O)CC1 (stereo not shown) [Example 1.26] | 4.7 nM |
| COCCCN(C)C(=O)c1cc(C#N)ccc1C1C(C(C)=O)=C(C)N(c2cccc(C(F)(F)F)c2)C(=O)N1C (stereo not shown) [Example 1.27] | < 1 nM |
| CC(=O)C1=C(C)N(c2cccc(C(F)(F)F)c2)C(=O)N(C)C1c1ccc(C#N)cc1C(=O)NC1CCN(C)CC1 (stereo not shown) [Example 1.28] | < 1 nM |
| CC(=O)C1=C(C)N(c2cccc(C(F)(F)F)c2)C(=O)N(C)C1c1ccc(C#N)cc1C(=O)NCCS(C)(=O)=O (stereo not shown) [Example 1.29] | < 1 nM |
| CC(=O)C1=C(C)N(c2cccc(C(F)(F)F)c2)C(=O)N(C)C1c1ccc(C#N)cc1C(=O)N(C)Cc1cnn(C)c1 (stereo not shown) [Example 1.30] | < 1 nM |
| CC(=O)C1=C(C)N(c2cccc(C(F)(F)F)c2)C(=O)N(C)C1c1ccc(C#N)cc1C(=O)NC1CCS(=O)(=O)C1 (stereo not shown) [Example 1.31] | < 1 nM |
| CC(=O)C1=C(C)N(c2cccc(C(F)(F)F)c2)C(=O)N(C)C1c1ccc(C#N)cc1C(=O)NC1(C#N)CC1 (stereo not shown) [Example 1.32] | < 1 nM |
| CC(=O)C1=C(C)N(c2cccc(C(F)(F)F)c2)C(=O)N(C)C1c1ccc(C#N)cc1C(=O)NC(C)(C)C#N (stereo not shown) [Example 1.33] | 1.8 nM |
| CC(=O)C1=C(C)N(c2cccc(C(F)(F)F)c2)C(=O)N(C)C1c1ccc(C#N)cc1C(=O)NCc1ccoc1 (stereo not shown) [Example 1.34] | < 1 nM |
| CC(=O)C1=C(C)N(c2cccc(C(F)(F)F)c2)C(=O)N(C)C1c1ccc(C#N)cc1C(=O)NCc1ccco1 (stereo not shown) [Example 1.35] | < 1 nM |
| CC(=O)C1=C(C)N(c2cccc(C(F)(F)F)c2)C(=O)N(C)C1c1ccc(C#N)cc1C(=O)NCc1cn[nH]c1 (stereo not shown) [Example 1.36] | < 1 nM |
| CC(=O)C1=C(C)N(c2cccc(C(F)(F)F)c2)C(=O)N(C)C1c1ccc(C#N)cc1C(=O)NCc1ncco1 (stereo not shown) [Example 1.37] | < 1 nM |
| CC(=O)C1=C(C)N(c2cccc(C(F)(F)F)c2)C(=O)N(C)C1c1ccc(C#N)cc1C(=O)NCc1ccno1 (stereo not shown) [Example 1.38] | < 1 nM |
| CC(=O)C1=C(C)N(c2cccc(C(F)(F)F)c2)C(=O)N(C)C1c1ccc(C#N)cc1C(=O)NCc1cnoc1 (stereo not shown) [Example 1.39] | < 1 nM |
| CC(=O)C1=C(C)N(c2cccc(C(F)(F)F)c2)C(=O)N(C)C1c1ccc(C#N)cc1C(=O)NCc1cnco1 (stereo not shown) [Example 1.40] | < 1 nM |
| CC(=O)C1=C(C)N(c2cccc(C(F)(F)F)c2)C(=O)N(C)C1c1ccc(C#N)cc1C(=O)NCc1ccon1 (stereo not shown) [Example 1.41] | < 1 nM |
| CC(=O)C1=C(C)N(c2cccc(C(F)(F)F)c2)C(=O)N(C)C1c1ccc(C#N)cc1C(=O)NCc1cocn1 (stereo not shown) [Example 1.42] | < 1 nM |
| CC(=O)C1=C(C)N(c2cccc(C(F)(F)F)c2)C(=O)N(C)C1c1ccc(C#N)cc1C(=O)NC1CCN(C)C1 (stereo not shown) [Example 1.43] | < 1 nM |
| CC(=O)C1=C(C)N(c2cccc(C(F)(F)F)c2)C(=O)N(C)C1c1ccc(C#N)cc1C(=O)N(C)CCN(C)C (stereo not shown) [Example 1.44] | < 1 nM |

Other lines, results leading:

| IC50 | SMILES |
| --- | --- |
| 1 nM | CC(=O)C1=C(C)N(c2cccc(C(F)(F)F)c2)C(=O)N(C)C1c1ccc(C#N)cc1C(=O)NCc1ccccc1 (stereo not shown) [Example 1.45] |
| < 1 nM | CC(=O)C1=C(C)N(c2cccc(C(F)(F)F)c2)C(=O)N(C)C1c1ccc(C#N)cc1C(=O)NCc1ccccn1 (stereo not shown) [Example 1.46] |
| < 1 nM | CC(=O)C1=C(C)N(c2cccc(C(F)(F)F)c2)C(=O)N(C)C1c1ccc(C#N)cc1C(=O)NCc1cccnc1 (stereo not shown) [Example 1.48] |
| < 1 nM | CC(=O)C1=C(C)N(c2cccc(C(F)(F)F)c2)C(=O)N(C)C1c1ccc(C#N)cc1C(=O)NCc1ccnnc1 (stereo not shown) [Example 1.49] |
| < 1 nM | CC(=O)C1=C(C)N(c2cccc(C(F)(F)F)c2)C(=O)N(C)C1c1ccc(C#N)cc1C(=O)NCc1cccnn1 (stereo not shown) [Example 1.50] |
| 1.4 nM | CC(=O)C1=C(C)N(c2cccc(C(F)(F)F)c2)C(=O)N(C)C1c1ccc(C#N)cc1C(=O)NC(C)c1ccco1 (stereo not shown) [Example 1.51] |
| < 1 nM | CC(=O)C1=C(C)N(c2cccc(C(F)(F)F)c2)C(=O)N(C)C1c1ccc(C#N)cc1C(=O)NCc1cncn1C (stereo not shown) [Example 1.52] |
| < 1 nM | CC(=O)C1=C(C)N(c2cccc(C(F)(F)F)c2)C(=O)N(C)C1c1ccc(C#N)cc1C(=O)NCc1ccnn1C (stereo not shown) [Example 1.53] |
| < 1 nM | CC(=O)C1=C(C)N(c2cccc(C(F)(F)F)c2)C(=O)N(C)C1c1ccc(C#N)cc1C(=O)NCc1cnn(C)c1 (stereo not shown) [Example 1.54] |
| < 1 nM | CC(=O)C1=C(C)N(c2cccc(C(F)(F)F)c2)C(=O)N(C)C1c1ccc(C#N)cc1C(=O)NCc1ccn(C)n1 (stereo not shown) [Example 1.55] |
| 0.3 nM | CC(=O)C1=C(C)N(c2cccc(C(F)(F)F)c2)C(=O)N(C)C1c1ccc(C#N)cc1C(=O)N(C)Cc1cn[nH]c1 (stereo not shown) [Example 1.56] |
| < 1 nM | CC(=O)C1=C(C)N(c2cccc(C(F)(F)F)c2)C(=O)N(C)C1c1ccc(C#N)cc1C(=O)NCc1nccn1C (stereo not shown) [Example 1.57] |
| < 1 nM | CC(=O)C1=C(C)N(c2cccc(C(F)(F)F)c2)C(=O)N(C)C1c1ccc(C#N)cc1C(=O)NCc1cn(C)cn1 (stereo not shown) [Example 1.58] |
| < 1 nM | CC(=O)C1=C(C)N(c2cccc(C(F)(F)F)c2)C(=O)N(C)C1c1ccc(C#N)cc1C(=O)N(C)Cc1ccon1 (stereo not shown) [Example 1.59] |
| < 1 nM | CC(=O)C1=C(C)N(c2cccc(C(F)(F)F)c2)C(=O)N(C)C1c1ccc(C#N)cc1C(=O)N(C)Cc1ccno1 (stereo not shown) [Example 1.60] |
| < 1.3 nM | CC(=O)C1=C(C)N(c2cccc(C(F)(F)F)c2)C(=O)N(C)C1c1ccc(C#N)cc1C(=O)NCc1nncn1C (stereo not shown) [Example 1.61] |
| < 1 nM | CC(=O)C1=C(C)N(c2cccc(C(F)(F)F)c2)C(=O)N(C)C1c1ccc(C#N)cc1C(=O)NCc1nnnn1C (stereo not shown) [Example 1.62] |
| 1.8 nM | CC(=O)C1=C(C)N(c2cccc(C(F)(F)F)c2)C(=O)N(C)C1c1ccc(C#N)cc1C(=O)N1CC[C@@H](N(C)C)C1 (stereo partly shown) [Example 1.63] |
| < 1 nM | CC(=O)C1=C(C)N(c2cccc(C(F)(F)F)c2)C(=O)N(C)C1c1ccc(C#N)cc1C(=O)N1CC[C@H](N(C)C)C1 (stereo partly shown) [Example 1.64] |
| 4.1 nM | CCN1CCN(C(=O)c2cc(C#N)ccc2C2C(C(C)=O)=C(C)N(c3cccc(C(F)(F)F)c3)C(=O)N2C)CC1 (stereo not shown) [Example 1.65] |
